Measured values: US20100267561A1, “HERBICIDAL PYRIDAZINONE DERIVATIVES” (priority 2007, published 2010)

What was measured:
Assay in all cases: Test B pre-/postemergence plant response
Type in all cases: in vivo
[1] = tested on: velvetleaf (Abutilon theophrasti); settings: for Velvetleaf plant response rating: 8 g ai/ha
Summary of the method: (§1)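 Seeds were sown and sprayed preemergence, while plants at 2 to 18 cm (1- to 4-leaf stage) got postemergence sprays. Compounds were formulated in a non-phytotoxic solvent mixture with surfactant. After 13 to 15 days in a greenhouse, injury was rated visually against untreated controls, 0 (no effect) to 100 (complete control).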

[2] = tested on: bermudagrass (Cynodon dactylon); settings: for Bermudagrass plant response rating: 8 g ai/ha
Summary of the method: as §1

[3] = tested on: wheat (Triticum aestivum); settings: for Wheat plant response rating: 8 g ai/ha
Summary of the method: as §1

[4] = tested on: goosegrass (Eleusine indica); settings: for Goosegrass plant response rating: 8 g ai/ha
Summary of the method: as §1

[5] = tested on: lambsquarters (Chenopodium album); settings: for Lambsquarters plant response rating: 8 g ai/ha
Summary of the method: as §1

[6] = tested on: woolly cupgrass (Eriochloa villosa); settings: for Cupgrass, Woolly plant response rating: 8 g ai/ha
Summary of the method: as §1

soybean (Glycine max) = settings: for Soybean plant response rating: 8 g ai/ha
Summary of the method: as §1

[7] = tested on: green foxtail (Setaria viridis); settings: for Foxtail, Green plant response rating: 8 g ai/ha
Summary of the method: as §1

[8] = tested on: giant foxtail (Setaria faberii); settings: for Foxtail, Giant plant response rating: 8 g ai/ha
Summary of the method: as §1

corn (Zea mays) = settings: for Corn plant response rating: 8 g ai/ha
Summary of the method: as §1

[9] = tested on: Russian thistle (Salsola iberica); settings: Preemergence
Summary of the method: as §1

[10] = tested on: yellow nutsedge (Cyperus esculentus); settings: for Nutsedge, Yellow plant response rating: 8 g ai/ha
Summary of the method: as §1

kochia (Kochia scoparia) = settings: for Kochia plant response rating: 8 g ai/ha
Summary of the method: as §1

[11] = tested on: cocklebur (Xanthium strumarium); settings: for Cocklebur plant response rating: 8 g ai/ha
Summary of the method: as §1

[12] = Postemergence, 16 g ai/ha, scale 0 to 100
[13] = Postemergence, 62 g ai/ha, scale 0 to 100, 0 no effect, 100 complete control
[14] = Preemergence, 16 g ai/ha, scale 0 to 100 (0 no effect, 100 complete control)
[15] = Preemergence, 31 g ai/ha, 0 to 100 scale, 0 no effect, 100 complete control
[16] = Preemergence, 62 g ai/ha, scale 0 to 100
[17] = Postemergence, 31 g ai/ha, scale 0 to 100, 0 no effect, 100 complete control

CCc1cc(-c2ccc(Cl)cc2)nn1-c1c(OS(C)(=O)=O)cnn(C)c1=O [Compound 39] was tested, and the “Velvetleaf plant response rating” value ([1]; postemergence, 0-100 scale) was 0, the “Plant response rating, Velvetleaf” value [1, 12] was 0 and the “Plant response rating, Velvetleaf” value [1, 13] was 0. The “Plant response rating, Velvetleaf” value [1, 14] was 0, the “Plant response rating, Velvetleaf” value [1, 15] was 0 and the “Plant response rating, Velvetleaf” value [1, 16] was 0. The “Velvetleaf plant response rating” value ([1]; Preemergence, scale 0 to 100) was 0, the “Bermudagrass plant response rating” value ([2]; postemergence, 0-100 scale) was 0 and the “Plant response rating, Bermudagrass” value [2, 12] was 60. For the same compound, the “Plant response rating, Bermudagrass” value [2, 17] was 75, the “Plant response rating, Bermudagrass” value [2, 13] was 95 and the “Bermudagrass plant response rating” value ([2]; Preemergence, scale 0 to 100 (0 no effect, 100 complete control)) was 0. The “Plant response rating, Bermudagrass” value [2, 14] was 90, the “Plant response rating, Bermudagrass” value [2, 15] was 95 and the “Plant response rating, Bermudagrass” value [2, 16] was 98. For the same compound, the “Wheat plant response rating” value ([3]; postemergence, 0-100 scale) was 20, the “Plant response rating, Wheat” value [3, 12] was 20 and the “Plant response rating, Wheat” value [3, 13] was 98. For the same compound, the “Plant response rating, Wheat” value [3, 14] was 30, the “Plant response rating, Wheat” value [3, 15] was 70 and the “Plant response rating, Wheat” value [3, 16] was 80. The “Wheat plant response rating” value ([3]; Preemergence, scale 0 to 100) was 0, the “Goosegrass plant response rating” value ([4]; postemergence, 0-100 scale) was 20 and the “Plant response rating, Goosegrass” value [4, 12] was 65. The “Plant response rating, Goosegrass” value [4, 17] was 85, the “Plant response rating, Goosegrass” value [4, 13] was 100 and the “Plant response rating, Goosegrass” value [4, 14] was 100. For the same compound, the “Plant response rating, Goosegrass” value [4, 15] was 100, the “Plant response rating, Goosegrass” value [4, 16] was 100 and the “Goosegrass plant response rating” value ([4]; Preemergence, scale 0 to 100) was 95. For the same compound, the “Lambsquarters plant response rating” value ([5]; postemergence, 0-100 scale) was 0, the “Plant response rating, Lambsquarters” value [5, 12] was 0 and the “Plant response rating, Lambsquarters” value [5, 17] was 0. The “Plant response rating, Lambsquarters” value [5, 13] was 0, the “Plant response rating, Lambsquarters” value [5, 14] was 0 and the “Plant response rating, Lambsquarters” value [5, 15] was 0. For the same compound, the “Plant response rating, Lambsquarters” value [5, 16] was 0, the “Lambsquarters plant response rating” value ([5]; Preemergence, scale 0 to 100) was 0 and the “Cupgrass, Woolly plant response rating” value ([6]; postemergence, 0-100 scale) was 80. The “Plant response rating, Cupgrass, Woolly” value [6, 12] was 95, the “Plant response rating, Cupgrass, Woolly” value [6, 17] was 100 and the “Plant response rating, Cupgrass, Woolly” value [6, 13] was 100. For the same compound, the “Plant response rating, Cupgrass, Woolly” value [6, 14] was 65, the “Plant response rating, Cupgrass, Woolly” value [6, 15] was 95 and the “Plant response rating, Cupgrass, Woolly” value [6, 16] was 98. The “Cupgrass, Woolly plant response rating” value ([6]; Preemergence, scale 0 to 100) was 20, the “Soybean plant response rating” value (soybean (Glycine max); postemergence, 0-100 scale) was 0 and the “Plant response rating, Soybean” value (soybean (Glycine max); [12]) was 0. The “Plant response rating, Soybean” value (soybean (Glycine max); [13]) was 0, the “Plant response rating, Soybean” value (soybean (Glycine max); [14]) was 0 and the “Plant response rating, Soybean” value (soybean (Glycine max); [15]) was 0. For the same compound, the “Plant response rating, Soybean” value (soybean (Glycine max); [16]) was 0, the “Soybean plant response rating” value (soybean (Glycine max); Preemergence, scale 0 to 100) was 0 and the “Foxtail, Green plant response rating” value ([7]; postemergence, 0-100 scale) was 30. For the same compound, the “Plant response rating, Foxtail, Green” value [7, 12] was 80, the “Plant response rating, Foxtail, Green” value [7, 17] was 85 and the “Plant response rating, Foxtail, Green” value [7, 13] was 100. For the same compound, the “Plant response rating, Foxtail, Green” value [7, 14] was 100, the “Plant response rating, Foxtail, Green” value [7, 15] was 100 and the “Plant response rating, Foxtail, Green” value [7, 16] was 100. The “Foxtail, Green plant response rating” value ([7]; Preemergence, scale 0 to 100) was 80, the “Foxtail, Giant plant response rating” value ([8]; postemergence, 0-100 scale) was 80 and the “Plant response rating, Foxtail, Giant” value [8, 12] was 98. The “Plant response rating, Foxtail, Giant” value [8, 17] was 100, the “Plant response rating, Foxtail, Giant” value [8, 13] was 100 and the “Plant response rating, Foxtail, Giant” value [8, 14] was 100. For the same compound, the “Plant response rating, Foxtail, Giant” value [8, 15] was 100, the “Plant response rating, Foxtail, Giant” value [8, 16] was 100 and the “Foxtail, Giant plant response rating” value ([8]; Preemergence, scale 0 to 100) was 100. For the same compound, the “Corn plant response rating” value (corn (Zea mays); postemergence, 0-100 scale) was 0, the “Plant response rating, Corn” value (corn (Zea mays); [12]) was 85 and the “Plant response rating, Corn” value (corn (Zea mays); [17]) was 98. For the same compound, the “Plant response rating, Corn” value (corn (Zea mays); [13]) was 100, the “Plant response rating, Corn” value (corn (Zea mays); [14]) was 80 and the “Plant response rating, Corn” value (corn (Zea mays); [15]) was 98. For the same compound, the “Plant response rating, Corn” value (corn (Zea mays); [16]) was 100, the “Corn plant response rating” value (corn (Zea mays); Preemergence, scale 0 to 100) was 65 and the “Plant response rating, Russian Thistle” value ([9]; 16 g ai/ha, scale 0 to 100 (0 no effect, 100 complete control)) was 0. The “Plant response rating, Russian Thistle” value ([9]; 31 g ai/ha, 0 to 100 scale, 0 no effect, 100 complete control) was 0, the “Plant response rating, Russian Thistle” value ([9]; 62 g ai/ha, scale 0 to 100) was 0 and the “Russian Thistle plant response rating” value ([9]; 8 g ai/ha, scale 0 to 100) was 0. For the same compound, the “Nutsedge, Yellow plant response rating” value ([10]; postemergence, 0-100 scale) was 0, the “Plant response rating, Nutsedge, Yellow” value [10, 12] was 0 and the “Plant response rating, Nutsedge, Yellow” value [10, 17] was 0. The “Plant response rating, Nutsedge, Yellow” value [10, 13] was 0, the “Plant response rating, Nutsedge, Yellow” value [10, 14] was 0 and the “Plant response rating, Nutsedge, Yellow” value [10, 15] was 0. For the same compound, the “Plant response rating, Nutsedge, Yellow” value [10, 16] was 0, the “Nutsedge, Yellow plant response rating” value ([10]; Preemergence, scale 0 to 100) was 0 and the “Kochia plant response rating” value (kochia (Kochia scoparia); postemergence, 0-100 scale) was 0. The “Plant response rating, Kochia” value (kochia (Kochia scoparia); [12]) was 0, the “Plant response rating, Kochia” value (kochia (Kochia scoparia); [17]) was 0 and the “Plant response rating, Kochia” value (kochia (Kochia scoparia); [13]) was 0. The “Plant response rating, Kochia” value (kochia (Kochia scoparia); [14]) was 0, the “Plant response rating, Kochia” value (kochia (Kochia scoparia); [15]) was 0 and the “Plant response rating, Kochia” value (kochia (Kochia scoparia); [16]) was 0. The “Kochia plant response rating” value (kochia (Kochia scoparia); Preemergence, scale 0 to 100) was 0, the “Cocklebur plant response rating” value ([11]; postemergence, 0-100 scale) was 0 and the “Plant response rating, Cocklebur” value [11, 12] was 0. For the same compound, the “Plant response rating, Cocklebur” value [11, 17] was 0, the “Plant response rating, Cocklebur” value [11, 13] was 0 and the “Plant response rating, Cocklebur” value [11, 14] was 0. The “Plant response rating, Cocklebur” value [11, 15] was 0, the “Plant response rating, Cocklebur” value [11, 16] was 0 and the “Cocklebur plant response rating” value ([11]; Preemergence, scale 0 to 100) was 0.
